Data: patent publication US20250214951A1, “3-PHENYLISOXAZOLE DERIVATIVE, AND PHARMACEUTICAL COMPOSITION FOR PREVENTING OR TREATING EYE DISEASE, CONTAINING SAME AS ACTIVE INGREDIENT” (VASTHERA CO., LTD., priority 2022, published 2025)

How the values were obtained:
[1] = test system: p62 protein phosphorylated at serine 349 (p-p62 (S349)); test: Autophagy activation by increase of p-p62 (S349), Western immunoblotting; type: cell-based, human; conditions: indicated concentrations; FIG. 14
Procedure: The cells were treated with the test compounds at the indicated concentrations, and the autophagy activation effect through the increase of p62 protein (p-p62 (S349)) phosphorylated at serine 349 residue was measured by Western immunoblotting using an anti-p-p62 antibody, and the results are shown in FIG. 14. The increase in the intracellular P-p62 ([…]) level is one of the major indicators of autophagy activation.

[2] = test system: A2E-BDP present in human retinal pigment epithelial cells (ARPE-19); test: Screening of ability to remove A2E-fluorescent labeling substance (A2E-BDP), lysate fluorescence; type: cell-based; conditions: ARPE-19, 24 h, ARPE-19 loaded with 10 μM A2E-BDP 24 h, test compound 50 μM once, fluorescence ex 485/em 535 nm, read-out: Capacity (%) to remove A2E-BDP at 50 μM
Procedure: (§1) The human retinal pigment epithelial cell line (ARPE-19) used in the experiment was provided by ATCC (American Type Culture Collection). The ARPE-19 cell line was cultured in DMEM medium containing 10% FBS. After culture, the cells were dispensed into 96-well plates at a concentration of 4×10^3 cells/well and cultured for 24 hours. The ARPE-19 cell line was treated with A2E-fluorescent labeling substance (A2E-BDP) at a concentration of 10 μM for 24 hours to induce the accumulation of A2E-BDP in the ARPE-19 cell line.
(§2) In order to evaluate the intracellular A2E removal ability of the compound of the present invention, an easily detectable A2E-fluorescent labeling substance (A2E-BDP) was used. The ARPE-19 cells prepared by the above method were treated with each test compound at a concentration of 50 μM once, and then cultured for 24 hours. The cells were lysed by adding a cell lysis buffer containing a protease inhibitor (50 mM Tris-chloride, pH 8.0, 150 mM sodium chloride, 1% NP-40, 1% sodium deoxycholate, 1% sodium dodecyl sulfate, and 2 mM ethylenediamine tetraacetic acid) to each 96-well. The prepared cell lysate was transferred to a white 96-well plate, and the fluorescence intensity was measured using a fluorescence microplate reader (VICTOR™ X3, Perkin Elmer, USA) (excitation 485 nm, emission 535 nm).

A2E-BDP in ARPE-19 cells [3] = test: A2E-BDP removal ability by concentration of other example compounds; type: cell-based, human; conditions: indicated concentrations; FIG. 13
Procedure: as §1, §2
The A2E-fluorescent labeling substance (A2E-BDP) removal ability was evaluated according to Experimental Example 1 (except that the test compound was treated at the indicated concentration).

A2E-BDP in ARPE-19 cells [4] = test: Removal of A2E-BDP by concentration, fluorescence and phase contrast microscopy; type: cell-based, human; conditions: ARPE-19 with A2E-BDP; 10, 25, 50 μM, 24 h; FIG. 1
Procedure: ARPE-19 cell line was dispensed into a 24-well plate at a concentration of 4×10^4 cells/well and cultured for 24 hours. In order to induce A2E-BDP accumulation in ARPE-19 cell line, the cells were treated with […] of 10 μM for 24 hours. The A2E-BDP-containing ARPE-19 cells were treated with compound 17 (10, 25, 50 μM) for 24 hours. The level of A2E-BDP in each cell was measured as a fluorescence image at 510 nm using a Nikon Eclipse Ti—U fluorescence microscope (Tokyo, Japan). In addition, the change in cell number according to compound treatment was observed using a general phase contrast microscope, and the results are shown in FIG. 1. Meanwhile, lutein was used as a control substance.

Compound | autophagy activation through increase of p-p62 (S349) [1] | inhibition at 50 µM [2] [%] | A2E-BDP removal ability by concentration (amount of A2E) (A2E-BDP in ARPE-19 cells [3]) | A2E-BDP fluorescence intensity (fluorescence microscope) (A2E-BDP in ARPE-19 cells [4])
CCCc1ccc(OC)c(-c2cc(CN3CCN(C(=O)OC(C)(C)C)CC3)on2)c1 [Example 26, tert-butyl 4-((3-(2-methoxy-5-propylphenyl)isoxazole-5-yl)methyl)piperazine-1-carboxylate] | activated autophagy in a concentration-dependent manner | ≥ 60 | concentration-dependent decrease in the amount of A2E | 
CC1=C[C@H](O)CC(C)(C)[C@H]1/C=C/C(C)=C/C=C/C(C)=C/C=C/C=C(C)/C=C/C=C(C)/C=C/C1=C(C)C[C@@H](O)CC1(C)C [lutein, reference compound] |  |  |  | a decrease in fluorescence intensity was observed
